# Measurements: paper PMC9166630, “SAR Probing of KX2-391 Provided Analogues With Juxtaposed Activity Profile Against Major Oncogenic Kinases” (Frontiers in Oncology, 2022)
# Like-named read-outs stand apart in the source and are kept apart here.
# What was measured:
# CYP2C9 = target: T1, CYP2C9 (Homo sapiens, UniProt P11712); assay: Inhibition assay of human CYP450 enzymes, 2C9; format: in vitro ADME; settings: for IC50: fluorescent substrate; for no inhibition of CYP2C9 at concentrations up to: the values are: IC50
# T1 construct: purchased Fisher Scientific; host or cells: insect cells (supersomes)
# Protocol: (§1) The two compounds 4e and 4n were assessed for their ability to inhibit the three major human CYP450 enzymes, 3A4, 2D6 and 2C9. Assays were run in triplicate. Expressed enzymes in insect supersomes (Fisher Scientific, Waltham, MA) were used to minimize non-specific binding and membrane partitioning issues ([68]). The 3A4 assay uses testosterone as a substrate and analysis was performed by LC/MS/MS on a Waters Xevo TQ instrument as described above using positive electrospray ionization. Assay acceptance criteria was 20% for all standards and 25% for the LLOQ. The 2D6 and 2C9 assays use fluorescent substrates (3-[2-(N,N-diethylamino)ethyl]-7-methoxy-4-methylcoumarin for 2D6; 7-methoxy-4-(trifluoromethyl)coumarin for 2C9) and were analyzed on an Envision plate reader. GraphPad® Prism v 5.04 was used for nonlinear fitting of data to generate IC50 values.
# [1] = test system: human skin fibroblasts (HSF); assay: Normal cell line assay; format: cell-based; settings: Skin fibroblast
# Protocol: In addition to having a good physicochemical profile, it is important for a studied lead to differentiate between cancer cells and highly proliferating non-cancerous cells. Therefore, we assessed compounds 4e and 4n for both the in silico and in vitro physicochemical characteristics as well as for cytotoxic effect on human skin fibroblasts (HSF) cell lines.
# The effect of the two compounds was evaluated for their effect on the growth and proliferation human skin fibroblasts (HSF) as an example of non-cancerous cell lines.
# CYP3A4 = target: T2, CYP3A4 (Homo sapiens, UniProt P08684); assay: Inhibition assay of human CYP450 enzymes, 3A4; format: in vitro ADME; settings: for IC50: testosterone substrate; for no inhibition of CYP3A4 at concentrations up to: the values are: IC50
# T2 construct: purchased Fisher Scientific; host or cells: insect cells (supersomes)
# Protocol: as §1
# [2] = Maximum kinetic aqueous solubility; format: physicochemical; settings: 2% DMSO/PBS, pH 7.4, read-out: Max. aq. Sol.
# Protocol: Solubility assays were performed using Millipore MultiScreen® HTS-PFC Filter Plates designed for solubility assays (EMD Millipore, Billerica, MA). Assays were run in triplicate. The 96-well plates consist of two chambers separated by a filter. Liquid handling was performed using JANUS® Verispan and MTD workstations (Perkin Elmer, Waltham, MA). 4 µL of 4e or 4n solution (10 mM in DMSO) was added to 196 µL of phosphate buffer (45 mM potassium phosphate, 45 mM sodium acetate, 45 mM ethanolamine, pH = 7.4) in the top chamber to give a final DMSO concentration of 2% and a theoretical drug concentration of 200 µM. Plates were gently shaken for 90 min and then subjected to vacuum. Insoluble drug is captured on the filter. 160 µL of the filtrate is transferred to 96-well Griener UV Star® analysis plates (Sigma–Aldrich, St. Louis, MO) containing 40 µL of acetonitrile. The test compound concentration in the filtrate is measured by UV absorbance on a Spectromax® Plus microplate reader (Molecular Devices, Sunnyvale, CA) using Softmax Pro software v.5.4.5. Absorbances at 5 wavelengths (280, 300, 320, 340, and 360 nm) were summed to generate the UV signal. Standard curves were generated by adding 4 µL of five concentrations of test compound in DMSO to 40 µL of acetonitrile in UV Star plates followed by 156 µL of the appropriate solubility medium. Analysis and statistics were performed using GraphPad® Prism v.5.04. Data were reported as the maximum concentration observed in the filtrate.
# [3] = test system: MV4-11 leukemia cell line; assay: CellTiter-Blue cell viability assay, MV4-11; format: cell-based; settings: Homo sapiens, CellTiter-Blue, 48 h, maximum tested concentration 20 µM, read-out: IC50 ± SEM, MV4-11
# Protocol: HL60, K562, MV4-11 and NB4 were purchased from CLS Cell Line Service GmbH (Eppelheim, Germany). All cell lines were cultured in RPMI-1640 medium supplemented with 10% fetal bovine serum (FBS) (Thermo Fisher Scientific) and 0.1% ciprofloxacin (2.5mg/ml; Cipla Limited; Mumbai, India), and were maintained at 37°C in the presence of 21% O2 and 5% CO2.
# Cell viability was determined using the CellTiter®-Blue Cell Viability Assay kit (Promega, Madison, WI, USA). Approximately 10^4 cells were counted and plated in a 96-well plate in the presence of test compounds ranging from 0.01 to 10 or 20 µM in triplicate and were incubated for 48 h at 37°C in a humidified incubator. After the incubation period was complete, 20 µL of CellTiter®-Blue Cell Viability Assay reagent was added to each well and incubated for additional 2 h for the development of florescence. Florescence was measured at Ex/Em 540/590 on SpectraMax® i3 Multi-Mode microplate reader (Molecular Devices, LLC; San Jose, CA, USA) and plotted against drug concentration to determine the IC50 of the test compounds. The IC50 was obtained by non-linear regression model using GraphPad Prism 6.07 (GraphPad Software, Inc, USA).
# [4] = Stability in mouse plasma; format: in vitro ADME; settings: CD-1, mouse, pH 7.4, 37°C, read-out: Mouse Plasma Stability t1/2
# Protocol: The assay was conducted at 37°C in triplicate. Test compounds or procaine (positive control) were tested at a final concentration of 1 µM in either 2.5% DMSO/CD-1 mouse plasma (Innovative Research, Novi, MI; sodium heparin added as anticoagulant; pH adjusted to 7.4 with 2N HCl on day of use) or 2.5% DMSO/PBS (pH 7.4: 136.9 mM NaCl, 2.68 mM KCl, 8.1 mM Na2HPO4, 1.47 mM KH2PO4, 0.9 mM CaCl2, 0.49 mM MgCl2). At seven time points, reaction mixture aliquots were transferred to 96-shallow well stop plates on ice containing acetonitrile with 0.1 µM propafenone. Samples were analyzed by LC/MS/MS on a Waters Xevo TQ instrument as described above using positive electrospray ionization. Assay acceptance criteria was 20% for all standards and 25% for the LLOQ. GraphPad® Prism v. 5.04 was used for nonlinear fitting of data to generate t1/2 values.
# [5] = phosphate buffer with 2% DMSO, aqueous buffer, kinetic from dmso stock
# T2 sequence (P08684 whole entry): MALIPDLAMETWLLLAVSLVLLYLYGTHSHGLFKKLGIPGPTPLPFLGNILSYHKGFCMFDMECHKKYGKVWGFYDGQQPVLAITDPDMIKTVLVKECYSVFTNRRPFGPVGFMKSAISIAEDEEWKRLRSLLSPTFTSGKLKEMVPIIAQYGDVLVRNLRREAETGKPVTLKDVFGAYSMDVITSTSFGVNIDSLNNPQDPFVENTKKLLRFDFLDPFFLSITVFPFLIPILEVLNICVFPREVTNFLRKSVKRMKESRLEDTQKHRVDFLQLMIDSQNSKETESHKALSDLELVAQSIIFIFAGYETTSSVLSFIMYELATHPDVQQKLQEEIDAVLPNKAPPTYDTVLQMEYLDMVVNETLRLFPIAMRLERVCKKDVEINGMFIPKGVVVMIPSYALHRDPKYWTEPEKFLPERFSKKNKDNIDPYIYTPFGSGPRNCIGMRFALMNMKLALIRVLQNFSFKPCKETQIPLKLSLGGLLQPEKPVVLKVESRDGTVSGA
# T1 sequence (P11712 whole entry): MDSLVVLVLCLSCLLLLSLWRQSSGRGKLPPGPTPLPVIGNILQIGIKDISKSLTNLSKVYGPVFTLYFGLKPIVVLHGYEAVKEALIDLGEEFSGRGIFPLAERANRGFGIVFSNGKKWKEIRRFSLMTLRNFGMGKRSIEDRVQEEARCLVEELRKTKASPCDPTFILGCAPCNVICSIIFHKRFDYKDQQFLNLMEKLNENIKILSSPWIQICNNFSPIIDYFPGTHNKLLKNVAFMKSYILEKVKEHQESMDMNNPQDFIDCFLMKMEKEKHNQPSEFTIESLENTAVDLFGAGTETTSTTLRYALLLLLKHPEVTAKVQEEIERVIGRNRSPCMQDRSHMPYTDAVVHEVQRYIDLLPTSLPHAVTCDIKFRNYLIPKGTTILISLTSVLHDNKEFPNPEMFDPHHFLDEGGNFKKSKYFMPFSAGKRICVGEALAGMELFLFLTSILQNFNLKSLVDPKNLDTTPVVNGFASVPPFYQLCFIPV
SMILES,IC50 (CYP2C9) [nM],no inhibition of CYP2C9 at concentrations up to (CYP2C9) [µM],IC50 [1] [nM],IC50 (CYP3A4) [nM],no inhibition of CYP3A4 at concentrations up to (CYP3A4) [µM],solubility kinetic at 90 min [2] [µM],"solubility kinetic at 90 min [2, 5] [µM]",IC50 [3] [nM],half-life at 1 µM [4] [h]
"O=C(Cc1ccc(NC(=O)c2cccc(Cl)c2)cc1)NCc1ccccc1 [Compound 4e, N-(4-(2-(benzylamino)-2-oxoethyl)phenyl)-3-chlorobenzamide]",> 10000,> 10,> 20000,> 10000,> 10,< 2.0,< 2,1900 ± 80,> 5
"O=C(Cc1ccc(NC(=O)c2cccc(Cl)n2)cc1)NCc1ccccc1 [Compound 4n, N-(4-(2-(benzylamino)-2-oxoethyl)phenyl)-6-chloropicolinamide]",> 10000,> 10,270 ± 30,> 10000,> 10,–,2.6,1960 ± 470,2.97
